Test results reported in the supplement of paper PMC13386468.

Columns and labels:
Experiment in all cases: IC50 for competition of protein binding to Kinobeads
Details in all cases: assay detail: Kinobeads competition in P. falciparum blood-stage lysate
[1] = molecular target: UniProt C6KT13
[2] = molecular target: UniProt Q6ZLZ9
[3] = molecular target: UniProt Q8IKK4
[4] = molecular target: UniProt Q8ID59
[5] = molecular target: UniProt Q8IL71
[6] = molecular target: UniProt Q8ILP6
[7] = molecular target: UniProt Q8ILY9
[8] = molecular target: UniProt Q8IDN4
UniProt Q8IDN4, sequence (Q8IDN4 whole entry): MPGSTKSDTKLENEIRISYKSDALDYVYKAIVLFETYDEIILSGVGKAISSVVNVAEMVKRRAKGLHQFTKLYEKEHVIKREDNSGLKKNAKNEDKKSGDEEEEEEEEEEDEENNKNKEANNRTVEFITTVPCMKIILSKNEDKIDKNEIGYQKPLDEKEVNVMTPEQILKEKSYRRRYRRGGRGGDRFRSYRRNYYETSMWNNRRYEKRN

[9] = molecular target: UniProt C0H4U4
[10] = molecular target: UniProt Q8IKK7
[11] = molecular target: UniProt Q8IBN7
[12] = molecular target: UniProt Q8IBI0
[13] = molecular target: UniProt Q8I510
[14] = molecular target: UniProt Q8IDB0
[15] = molecular target: UniProt Q8IM66
[16] = molecular target: UniProt C6KTC7
[17] = molecular target: UniProt Q8IM15
UniProt Q8IM15, sequence (Q8IM15 whole entry): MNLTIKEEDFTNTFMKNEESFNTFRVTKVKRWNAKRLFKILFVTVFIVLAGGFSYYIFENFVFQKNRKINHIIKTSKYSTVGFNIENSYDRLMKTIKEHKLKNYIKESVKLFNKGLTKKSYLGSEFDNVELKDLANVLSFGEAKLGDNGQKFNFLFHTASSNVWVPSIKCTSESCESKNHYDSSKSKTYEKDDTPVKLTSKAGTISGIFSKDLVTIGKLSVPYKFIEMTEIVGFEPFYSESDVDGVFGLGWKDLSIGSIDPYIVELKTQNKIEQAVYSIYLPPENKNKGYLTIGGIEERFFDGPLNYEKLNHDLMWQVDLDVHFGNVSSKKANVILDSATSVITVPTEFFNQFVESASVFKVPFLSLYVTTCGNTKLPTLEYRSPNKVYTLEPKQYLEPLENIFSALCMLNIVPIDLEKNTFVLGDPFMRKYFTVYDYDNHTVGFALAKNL

[18] = molecular target: UniProt Q8I4Y5
[19] = molecular target: UniProt C6KT19
[20] = molecular target: UniProt Q8ID96
[21] = molecular target: UniProt Q8IDK7
[22] = molecular target: UniProt Q8IJT9
[23] = molecular target: UniProt C0H4Y6
[24] = molecular target: UniProt Q8IAW5
[25] = molecular target: UniProt Q8IM01
[26] = molecular target: UniProt Q8I320
[27] = molecular target: UniProt C6KT23
[28] = molecular target: UniProt Q8I431
[29] = molecular target: UniProt Q7K6A5
UniProt Q7K6A5, sequence (Q7K6A5 whole entry): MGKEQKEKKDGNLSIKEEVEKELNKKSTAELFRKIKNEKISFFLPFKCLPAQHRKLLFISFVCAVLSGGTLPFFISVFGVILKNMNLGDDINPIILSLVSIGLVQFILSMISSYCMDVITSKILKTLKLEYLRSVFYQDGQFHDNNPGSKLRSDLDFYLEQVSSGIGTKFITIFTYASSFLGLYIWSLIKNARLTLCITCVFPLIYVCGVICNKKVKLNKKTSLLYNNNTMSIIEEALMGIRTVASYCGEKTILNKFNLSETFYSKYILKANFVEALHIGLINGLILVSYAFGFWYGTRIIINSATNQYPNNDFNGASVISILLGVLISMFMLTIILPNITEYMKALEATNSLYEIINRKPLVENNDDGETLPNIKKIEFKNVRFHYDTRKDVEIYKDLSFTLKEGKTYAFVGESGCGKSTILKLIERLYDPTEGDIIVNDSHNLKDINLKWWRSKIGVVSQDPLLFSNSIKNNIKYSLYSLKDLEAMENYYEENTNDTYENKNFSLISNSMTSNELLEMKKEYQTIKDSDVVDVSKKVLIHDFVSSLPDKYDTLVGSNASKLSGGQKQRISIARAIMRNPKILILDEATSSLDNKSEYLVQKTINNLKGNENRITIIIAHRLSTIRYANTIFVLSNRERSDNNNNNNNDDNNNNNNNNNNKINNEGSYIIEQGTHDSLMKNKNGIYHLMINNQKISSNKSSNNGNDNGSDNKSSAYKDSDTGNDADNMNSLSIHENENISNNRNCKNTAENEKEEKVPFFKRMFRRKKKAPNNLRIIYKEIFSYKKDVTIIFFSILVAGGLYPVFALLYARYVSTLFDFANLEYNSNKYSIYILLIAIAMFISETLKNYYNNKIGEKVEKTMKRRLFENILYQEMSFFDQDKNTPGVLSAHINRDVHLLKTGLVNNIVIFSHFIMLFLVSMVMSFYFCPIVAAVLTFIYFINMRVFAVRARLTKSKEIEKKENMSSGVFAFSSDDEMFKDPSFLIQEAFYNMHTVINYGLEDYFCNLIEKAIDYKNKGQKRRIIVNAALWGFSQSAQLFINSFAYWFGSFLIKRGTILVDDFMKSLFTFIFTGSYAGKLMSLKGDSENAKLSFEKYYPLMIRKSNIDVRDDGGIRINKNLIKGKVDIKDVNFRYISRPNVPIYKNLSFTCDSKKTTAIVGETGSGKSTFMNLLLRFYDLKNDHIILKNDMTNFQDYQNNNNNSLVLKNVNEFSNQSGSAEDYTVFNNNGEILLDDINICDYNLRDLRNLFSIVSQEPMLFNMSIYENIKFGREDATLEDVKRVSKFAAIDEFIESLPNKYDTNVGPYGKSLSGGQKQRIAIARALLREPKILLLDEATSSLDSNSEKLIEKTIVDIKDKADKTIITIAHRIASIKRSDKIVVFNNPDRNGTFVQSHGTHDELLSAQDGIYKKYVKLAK

[30] = molecular target: UniProt Q8IDG9
[31] = molecular target: UniProt Q8IL19
[32] = molecular target: UniProt Q8I3T1
[33] = molecular target: UniProt Q8ILK1
[34] = molecular target: UniProt Q8I5B3
[35] = molecular target: UniProt Q8ILC8
[36] = molecular target: UniProt O77323
UniProt O77323, sequence (O77323 whole entry): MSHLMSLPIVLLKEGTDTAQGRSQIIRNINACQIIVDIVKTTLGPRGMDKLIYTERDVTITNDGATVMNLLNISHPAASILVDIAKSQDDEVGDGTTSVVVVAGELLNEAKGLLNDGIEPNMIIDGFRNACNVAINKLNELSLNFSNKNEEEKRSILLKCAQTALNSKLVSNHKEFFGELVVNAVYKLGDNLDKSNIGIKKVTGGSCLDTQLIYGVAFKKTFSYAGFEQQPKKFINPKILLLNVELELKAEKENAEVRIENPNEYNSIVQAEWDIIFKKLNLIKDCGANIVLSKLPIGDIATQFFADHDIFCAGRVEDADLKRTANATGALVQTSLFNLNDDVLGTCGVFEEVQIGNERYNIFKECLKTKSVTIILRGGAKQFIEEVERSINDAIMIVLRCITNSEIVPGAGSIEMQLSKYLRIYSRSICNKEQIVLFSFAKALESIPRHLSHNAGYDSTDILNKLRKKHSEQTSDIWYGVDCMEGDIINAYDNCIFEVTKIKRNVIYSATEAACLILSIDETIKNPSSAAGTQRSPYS

[37] = molecular target: UniProt Q8IKS3
[38] = molecular target: UniProt Q8IIK4
UniProt Q8IIK4, sequence (Q8IIK4 whole entry): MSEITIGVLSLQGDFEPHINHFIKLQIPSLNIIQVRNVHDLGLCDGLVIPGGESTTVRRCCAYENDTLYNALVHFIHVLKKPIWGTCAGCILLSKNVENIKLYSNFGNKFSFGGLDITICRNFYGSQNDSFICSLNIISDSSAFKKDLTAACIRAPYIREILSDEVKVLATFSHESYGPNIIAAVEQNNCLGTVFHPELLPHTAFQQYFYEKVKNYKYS

[39] = molecular target: UniProt Q8I2B1
[40] = molecular target: UniProt Q8IDZ8
[41] = molecular target: UniProt Q8II13
[42] = molecular target: UniProt Q8IIA4
[43] = molecular target: UniProt Q8IIB7
[44] = molecular target: UniProt Q8IIK8
[45] = molecular target: UniProt O77376
[46] = molecular target: UniProt C6S3E1
[47] = molecular target: UniProt C0H4S8
[48] = molecular target: UniProt Q8IAM0
[49] = molecular target: UniProt Q8IBT7
[50] = molecular target: UniProt O96221
[51] = molecular target: UniProt Q8IFM9

Measured: IC50
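Note: native unpurified kinases from lysate captured on beads bearing immobilized kinase inhibitors, with bead-bound kinases quantified by mass spectrometry across compound doses.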

O=c1[nH]c2ccc(Cl)cc2c(NC2CN3CCC2CC3)c1-c1nc2ccccc2[nH]1 (stereo unspecified) [CHIR-124]
> 20 µM: [1] | [2] | [3] | [4] | [5] | [6] | [7] | [8] | [9] | [10] | [11] | [12] | [13] | [14] | [15] | [16] | [17] | [18] | [19] | [20] | [21] | [22] | [23] | [24] | [25] | [26] | [27] | [28] | [29] | [30] | [31] | [32] | [33] | [34] | [35] | [36] | [37] | [38] | [39] | [40] | [41] | [42] | [43] | [44] | [45] | [46] | [47] | [48] | [49] | [50] | [51]
